In ChEMBL document CHEMBL1155866, “Effects of N-pyrrole substitution on the anti-biofilm activities of oroidin derivatives against Acinetobacter baumannii” (Bioorg Med Chem Lett, 2008):

Experiments:
[1] = test system: Acinetobacter baumannii; assay: Inhibition of […] biofilm formation after 24 hrs by crystal violet reporter assay; assay type: functional, organism-based
[2] = test system: Acinetobacter baumannii; assay: Inhibition of […] biofilm formation at 500 uM after 24 hrs by crystal violet reporter assay; assay type: functional
[3] = test system: Acinetobacter baumannii; assay: Inhibition of […] biofilm dispersion after 24 hrs by crystal violet reporter assay; assay type: functional, organism-based

Row | SMILES | IC50 [1] | inhibition at 500 µM [2] | EC50 [3]
1 | Nc1nc(CCCNC(=O)c2cc(Br)c(Br)n2Cc2ccccc2)c[nH]1 | 35.4 µM | – | –
2 | Nc1nc(CCCNC(=O)c2cc(Br)c(Br)n2CCc2ccccc2)c[nH]1 | 40.7 µM | – | –
3 | Nc1nc(CCCNC(=O)c2cc(Br)c(Br)n2-c2ccccc2)c[nH]1 | 97.7 µM | – | –
4 | Cn1c(C(=O)NCCCc2c[nH]c(N)n2)nc(Br)c1Br | – | 50.7% | –
5 | COc1ccc(Cn2c(C(=O)NCCCc3c[nH]c(N)n3)cc(Br)c2Br)cc1 | 42.8 µM | – | –
6 | Cn1c(C(=O)NCCCc2c[nH]c(N)n2)cc(Br)c1Br [DIHYDROSVENTRIN] | 110 µM | > 99% | –
7 | Nc1nc(CCCNC(=O)c2cc(Br)c(Br)n2C2CCCC2)c[nH]1 | 40.5 µM | – | –
8 | Nc1nc(CCCNC(=O)c2cc(Br)c(Br)n2-c2ccc(Br)cc2)c[nH]1 | 26.8 µM | – | 41.3 µM
9 | CCn1c(C(=O)NCCCc2c[nH]c(N)n2)cc(Br)c1Br | – | 10.3% | –
